Test results: patent US9945845B2, “Methods of screening using amphibians” (priority 2009, dated 2018)
Entries after “also recorded” stand apart in the source; their conditions may differ. Like-named read-outs stand apart in the source and are kept apart here.

Tests used:
HUVEC [1] = test: HUVEC cell proliferation assay; format: cell-based, human; settings: 10 μM in 0.1% DMSO, 48 hours; for activity at 10 µM: Homo sapiens, HUVEC, 48 h, read-out: HUVEC proliferation
Procedure: (§1) Human umbilical vein endothelial cells (HUVEC) were purchased from PromoCell. […] HUVEC and LEC were cultured in endothelial basal medium EBM (Cambrex) supplemented with 20% fetal bovine serum (Invitrogen), antibiotic-antimycotics (100 U/ml penicillin, 100 μg/ml streptomycin, 250 ng/ml amphotericin; Invitrogen). 2 mM L-glutamine (Invitrogen), 10 μg/ml hydrocortisone (Fluka) and 25 μg/ml N^6,2′-O-dibutyryladenosine 3′,5′-cyclic monophosphate sodium salt (Fluka) for up to eleven passages.
(§2) The intensity of fluorescence, which is proportional to the number of viable cells, was measured using a microplate reader (SpectraMax Gemini EM; Molecular Devices). The chemical treatments were performed in five replicates.
(§3) The cell proliferation assays were performed by treating the endothelial cell cultures with compounds at a screening dose of 10 μM in 0.1% DMSO for 48 hours (FIG. 6a; Table 10).

LEC [2] = test: LEC cell proliferation assay; format: cell-based, human; settings: 10 μM in 0.1% DMSO, 48 hours; for activity at 10 µM: Homo sapiens, 48 h, read-out: LEC proliferation
Procedure: as §1, §2, §3

Xenopus embryos = settings: for Embr. phen.: embryonic phenotype in the primary screen; for Lethality: — = no stage of lethality given; for Onset (NF): onset of edema; for Type of edema Ventral: ‡ = edemas also detected in the gut
How it was run: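 Stage 31 (37 hpf) Xenopus embryos, five per well, exposed to 20 µM compound in 1% DMSO at 23 °C for 4 days. Edema, lethality and other external phenotypes were scored daily by two investigators at stages 39, 41, 45 and 47.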

LEC [3] = test: cells; format: cell-based, human; settings: for activity at 1 µM: Homo sapiens
Procedure: as §1
(§4) The effect of the selected chemicals on the formation of tube-like structures was performed as follows. […] After overnight incubation at 37° C. the treated cell cultures were fixed with 4% paraformaldehyde. Each chemical treatment was performed in triplicate and the experiment was repeated at least three times. Three representative images of hotspots with tube-like structures were taken per well using a digital camera (AxioCam MRm, Carl Zeiss) mounted on an inverted microscope (Axiovert 200M, Carl Zeiss). The length of the tube-like structures was measured using the IPLab software (BD Biosciences). For each experimental condition, results are represented as average total tube length (μm) per area (three image fields).
(§5) The effects of the selected compounds on endothelial tube formation was assessed after over treatment of LEC and HUVEC cultures at a compound concentration of 1 μM in 0.1% DMSO. The length of the tube-like structures was measured using the IPLab software.

HUVEC [4] = test: HUVEC tube formation assay; format: cell-based, human; settings: 1 μM in 0.1% DMSO; for activity at 1 µM: Homo sapiens, HUVEC
Procedure: as §1, §4, §5

[5] = tested on: blood vessel development and/or lymphangiogenesis in Xenopus embryos; format: in vivo, Xenopus laevis; settings: for blood vessel development phenotype (apj expression, in words): 20 μM from stage 31, fixed at stage 35/36; for ISV phenotype: intersomitic vessels; for PCV phenotype: posterior cardinal vein; for VVN phenotype: vitelline vein network
Procedure: All chemicals were purchased from Sigma and 10-mM stock solutions in DMSO were prepared. Chemicals were used at a final concentration of 20 μM in screening medium to treat homozygous albino Xenopus embryos, which lack natural pigmentation. Chemical treatments of embryos (n=7 per well) was initiated at stage 31 (37 hpf) and terminated at stages 35/36 (50 hpf) or 42 (80 hpf). Embryos were fixed in 4% paraformaldehyde and processed for whole mount in situ hybridization.
Where albino embryos were used, the bleaching step was omitted. Semi-automated whole mount in situ hybridizations were performed using the Biolane HTI machine (Hölle & Hüttner AG, Germany). […] Images were captured using a stereomicroscope (SteREO Lumar V12; Carl Zeiss) equipped with a digital camera (AxioCam Color; Carl Zeiss). Composite figures were organized and labeled using Adobe Photoshop CS2 and Adobe Illustrator CS software.
Edema formation or late-stage lethality may result from excretory system defects, (cardio)vascular and/or lymphatic vascular pathologies. […] Embryos were fixed for in situ hybridization either at stage 35/36 to analyze vasculogenesis and intersomitic vein angiogenesis defects or at stage 42 to evaluate possible defects in lymph vessel development (FIGS. 3-5).

[6] = 20 μM, 1% DMSO, treatment from stage 31
[7] = compounds causing lethality, 20 μM, 1% DMSO, treatment from stage 31, Nieuwkoop & Faber stage
[8] = 1 μM in 0.1% DMSO, overnight, read-out: LEC tube formation
[9] = 1 μM in 0.1% DMSO, read-out: LEC tube formation (tube length)
[10] = overnight, read-out: HUVEC tube formation
[11] = read-out: HUVEC tube formation (tube length)
[12] = compounds causing edema, 20 μM, 1% DMSO, treatment from stage 31, scored to stage 47
[13] = 20 μM, 1% DMSO, treatment from stage 31, Nieuwkoop & Faber stage

| Compound | activity at 10 µM (HUVEC [1]) [%] | activity at 10 µM (LEC [2]) [%] | edema or other phenotype in compound-treated Xenopus embryos/tadpoles (in words) (Xenopus embryos; [6]) | activity at 1 µM (LEC [3]; [8]) [%] | activity at 1 µM (LEC [3]; [9]) [%] | activity at 1 µM (HUVEC [4]; [10]) [%] | activity at 1 µM (HUVEC [4]; [11]) [%] | blood vessel development phenotype (apj expression, in words) [5] | HUVEC proliferation (HUVEC [1]) | Lethality (NF) (Xenopus embryos; [12]) | Type of edema Pericordial (Xenopus embryos; embryonic stage) | Lethality (Xenopus embryos; embryonic stage) | Onset (NF) (Xenopus embryos; [13]) | effect on LEC tube formation (in words) (LEC [3]; 1 μM in 0.1% DMSO) | LEC tube formation (LEC [3]; 1 μM in 0.1% DMSO, overnight) | HUVEC tube formation (HUVEC [4]; overnight) | LEC proliferation (LEC [2]) | Type of edema Pronephric (Xenopus embryos; embryonic stage) | Type of edema Ventral (Xenopus embryos; embryonic stage) | also measured |
| --- | --- | --- | --- | --- | --- | --- | --- | --- | --- | --- | --- | --- | --- | --- | --- | --- | --- | --- | --- | --- |
| CC(C)c1ccc2c(c1)c(SC(C)(C)C)c(CC(C)(C)C(=O)[O-])n2Cc1ccc(Cl)cc1.[Na+] [MK-886, 3[3-tert-Butylthio-1-(4-chlorobenzyl)-5-isopropyl-1H-indol-2-yl]-2,2-dimethylpropionic acid, sodium salt] | 115 to 150 | 85 to 115 | causing lethality | 50 to 85 | 50 to 85 | 50 to 85 | 50 to 85 | hypoplasia of the VVN |  |  |  |  |  |  |  |  |  |  |  | Lethality (NF) (Xenopus embryos; [7]): 39 NF; Phenotype class in vivo ([5]; Xenopus embryos, 20 μM, vascular phenotype): VVN hypoplasia; ISV phenotype ([5]; Xenopus embryos): normal; PCV phenotype ([5]; Xenopus embryos): normal; VVN phenotype ([5]; Xenopus embryos): hypoplastic |
| O=C1Nc2ccc(I)cc2C1=Cc1cc(Br)c(O)c(Br)c1 [GW5074, 3-(3,5-Dibromo-4-hydroxybenzylidine-5-iodo-1,3-dihydro-indol-2-one)] |  |  |  |  |  |  |  | promoting ectopic, premature angiogenesis; also recorded: the VVN was dysplastic | O (O, inactive or marginal effects (85-115% of control);) | 41/42 | 33/34 | 41/42 | 33/34 | preferentially blocked tube formation in LEC rather than HUVEC cultures | − (−, moderate inhibition (50-85% of control):) | O (O, inactive or marginal effects (85-115% of control);) |  |  |  | Embr. phen. (Xenopus embryos): EDE; ISV phenotype ([5]; Xenopus embryos): ectopic; PCV phenotype ([5]; Xenopus embryos): normal; VVN phenotype ([5]; Xenopus embryos): dyspiastic |
| CC1=C(/C=C/C(C)=C/C=C/C(C)=C/C(=O)O)C(C)(C)CCC1 [Retinoic acid] | 115 to 150 | 115 to 150 |  | 50 to 85 | 50 to 85 | 50 to 85 | 50 to 85 |  | + (+, moderate promotion (>115-150% of control).) | 40 NF |  | 39 embryonic stages according to Nieuwkoop and Faber (NF) |  |  |  |  | + (+, moderate promotion (>115-150% of control).) | 39 embryonic stages according to Nieuwkoop and Faber (NF) |  | Type of edema Proctodeal (Xenopus embryos; embryonic stage): 40 embryonic stages according to Nieuwkoop and Faber (NF); Type of edema Cerebral (Xenopus embryos; embryonic stage, + = cerebral edema extending dorso-anteriorly and displacing the eyes): 39+ embryonic stages according to Nieuwkoop and Faber (NF) |
| Oc1c2ccccc2c2c3c(cccc13)N=N2 [SP600125, 1,9-Pyrazoloanthrone] | 85 to 115 | 85 to 115 |  | 50 to 85 | 59 | 85 to 115 | 110 |  |  |  |  |  |  |  |  |  |  |  |  | Lethality (NF) (Xenopus embryos; [7]): 41 NF |
| CCOC(=O)C1=C(C)NC(C)=C(C(=O)OC)C1c1cccc(Cl)c1Cl (stereo not drawn) [Felodipine] | 85 to 115 | 85 to 115 |  | 85 to 115 |  | 50 to 85 |  |  |  | 45 NF | 41/42 | 45 embryonic stages according to Nieuwkoop and Faber (NF) | 41/42 |  |  |  |  | 41/42 | 41/42 |  |
| Cl.c1ccc(CN2CCC3(CCCc4ccccc43)CC2)cc1 [L-687, 384 hydrochloride] |  |  |  |  |  |  |  | did not affect vascular development | + (+, moderate promotion (>115-150% of control).) |  |  |  |  |  | − (−, moderate inhibition (50-85% of control):) | − (−, moderate inhibition (50-85% of control):) | O (O, inactive or marginal effects (85-115% of control);) |  |  |  |
| O=Nc1c(-c2c(O)[nH]c3ccccc23)[nH]c2ccccc12 [Indirubin-3′-oxime] | 50 to 85 | 85 to 115 |  |  |  | 50 to 85 |  |  |  |  |  |  |  |  |  |  |  |  |  | Lethality (NF) (Xenopus embryos; Xenopus laevis, in vivo): 45 NF; scored in the phenotypic Xenopus screens (Xenopus embryos; in vivo): active; activity at 1 µM (LEC [3]; read-out: LEC tube formation): 85 to 115% |
| CN(C)c1cc2c(Nc3ccc4c(cnn4Cc4ccccc4)c3)ncnc2cn1 [GW2974, N4-(1-Benzyl-1H-indazol-5-yl)-N6,N6-dimethyl-pyrido[3,4-d)pyrimidine4-4,6-diamine] |  |  | enlarged lymph hearts |  |  |  |  |  |  | 47 NF | 41/42 | 47 embryonic stages according to Nieuwkoop and Faber (NF) | 41/42 |  | − (−, moderate inhibition (50-85% of control):) | − (−, moderate inhibition (50-85% of control):) |  |  | 41/42 | Embr. phen. (Xenopus embryos): EDE; Lymph heart enlargement (Xenopus embryos; embryonic stage): 45 embryonic stages according to Nieuwkoop and Faber (NF); Type of edema Periocular (Xenopus embryos; embryonic stage, * = causing bulging eyes, # = bilateral, causing narrow-set eyes): 41/42; lymph vessel development phenotype (vegfr3 expression, in words) ([5]; 20 μM from stage 31, fixed at stage 42): inhibiting preferentially lymphatic vascular development; also recorded: lymphangiogenesis was largely suppressed; Blood vessel phenotype ([5]; Xenopus embryos): normal; ALH phenotype ([5]; anterior lymph heart, Xenopus embryos): stunted; ALS phenotype ([5]; anterior lymph sac, Xenopus embryos): impaired; PLV phenotype ([5]; posterior lymph vessels, Xenopus embryos): hypoplastic |
| CC[C@@H]1/C=C/C=C/C[C@H](C)[C@H](O)[C@](C)(O)C(=O)[C@H](C)[C@@H](O)[C@H](C)C(=O)[C@H](C)[C@@H](O)[C@H](C)/C=C/C(=O)O[C@H]2[C@@H](C)[C@@H](CC1)O[C@@]1(CC[C@@H](C)[C@@H](C[C@H](C)O)O1)[C@@H]2C [oligomycin A] |  |  |  |  |  |  |  |  |  |  |  |  |  | preferentially blocked tube formation in LEC rather than HUVEC cultures |  |  |  |  |  |  |
| C#CCN1C(C)=C(C(=O)OC)C(c2cccc([N+](=O)[O-])c2)C(C(=O)OCC)=C1C (stereo not drawn) [MRS 1845, N-Propargylnitrendipene] |  |  | enlarged lymph hearts |  |  |  |  |  |  | 45 NF | 41/42 | 45 embryonic stages according to Nieuwkoop and Faber (NF) | 41/42 | preferentially blocked tube formation in LEC rather than HUVEC cultures | − (−, moderate inhibition (50-85% of control):) | O (O, inactive or marginal effects (85-115% of control);) | O (O, inactive or marginal effects (85-115% of control);) | 41/42 | 41/42 | Lymph heart enlargement (Xenopus embryos; embryonic stage): 41/42 |
